# Test results reported in patent US12427212B2, “Nectin-4 binding miniproteins, conjugates and uses thereof” (Aktis Oncology, Inc., priority 2023, dated 2025).
# Bridges are numbered along the chain shown (N, C = ends). Primed or numbered codes have the meaning given here. [ ]: non-standard residue; d: D form. The star is where a group is joined. Arg(NO2) = N=C(NCCC[C@H](N)C(=O)O)N[N+](=O)[O-]; Biotin = O=C1N[C@H]2[C@H](CS[C@H]2CCCCC(=O)*)N1; Lys(Me3) = C[N+](C)(C)CCCC[C@H](N)C(=O)O; Lys(iPr) = CC(C)NCCCC[C@H](N)C(=O)O; Lys(Me2) = CN(C)CCCC[C@H](N)C(=O)O; Cit = NC(=O)NCCC[C@H](N)C(=O)O; Lys(Me) = CNCCCC[C@H](N)C(=O)O; PEG4 = NCCOCCOCCOCCOCCC(=O)O; PEG4″ = 4(ethylene glycol); PEG4′ = not defined here
# Key:
# [1] = in vivo; details: Sprague Dawley, rat, iv
# Description: To begin, double jugular vein-cannulated Sprague Dawley rats were dosed with bolus intravenous injections of miniproteins (0.03-0.3 mg/kg) and FITC-sinistrin. Nine blood collection timepoints were taken from 0-2 h, processed to plasma with K2 EDTA, and were frozen for subsequent bioanalysis. Plasma miniprotein concentrations were measured by LC-MS/MS. To control for inter-animal renal clearance differences, and to compare with glomerular filtration rate (GFR), the miniprotein was co-formulated with a molecular marker of GFR, FITC-sinistrin (FS) (Pill et al., 2005). Plasma FITC-sinistrin was measured fluorometrically. All unknown sample measurements were interpolated against known authentic standards spiked into normal rat plasma to calculate concentration. Finally, non-compartmental analysis was performed to estimate plasma pharmacokinetic parameters.
# [2] = test system: Opossum kidney proximal tubule cells; assay: Proximal tubule epithelial cell uptake assay; type: cell-based; details: relative to control miniprotein C306; for % Uptake of C306: Table 10B, opossum kidney proximal tubule cells, modified lysine miniproteins; for % Uptake of C306 (Control): Table 10A, mean percent uptake in opossum kidney cells, 1 h at 37° C.
# Description: FIG. 8 is a bar graph of the percent uptake of exemplary miniproteins tested at 20 µM in a proximal tubule epithelial cell assay vs 20 μM control peptide set at 100%. […]
# Opossum kidney proximal tubule cells were plated in the upper chamber of 24-well transwell plates containing 600 μL of growth media in the lower chamber and were incubated overnight at 37° C., in 5% CO2. The following day, the media was changed, and cells were incubated an additional 24 h with orbital shaking at 146 RPM. Next, cells were washed and treated in duplicates with biotinylated exemplary miniproteins pre-complexed with streptavidin-AF647 for 1 h at 37° C., and 5% C02 with continuous orbital shaking. Following incubation, cells were washed three times with 1×PBS and lysed with RIPA buffer containing protease and phosphatase inhibitor cocktail and a universal nuclease for 30 minutes. Uptake was measured on 100 μL of lysates using a fluorimeter. Mean % uptake values of control miniprotein C306 in the presence of exemplary miniproteins are provided in TABLE 10A and summarized in FIG. 8.
# Uptake of engineered Nectin-4 miniproteins with further modified lysine residues (C298-C304, as described in Example 4B) was evaluated. Percent uptake of these exemplary Nectin-4-targeting miniproteins and C251 were determined against a control miniprotein, C306, using opossum kidney proximal tubule cells as described in Example 18A. Percent uptake of C298, which has an unmodified lysine (K) at amino acid position 26 (along the length of the miniprotein sequence. SEQ ID NO: 162), was 37% in the presence of […]. All other miniproteins having a modified lysine (modified with one or more small alkyl groups of monomethyl, dimethyl, trimethyl, or isopropyl group) had (i) kidney uptake similar to that of C251 and (ii) reduced uptake as compared to C298, which has an unmodified lysine at position 26.
compound,measurement,setting,value
CC[C@H](C)[C@@H]1NC(=O)[C@H](Cc2ccc(O)cc2)NC(=O)[C@H](CC(=O)O)NC(=O)[C@@H]2CSSC[C@@H](C(=O)N[C@@H](CO)C(=O)O)NC(=O)CNC(=O)[C@H](CC(C)C)NC(=O)[C@H](CC(N)=O)NC(=O)[C@H](CC(=O)O)NC(=O)[C@H](CC(C)C)NC(=O)[C@H]([C@@H](C)CC)NC(=O)[C@H](CCC(=O)O)NC(=O)[C@H](CCC(=O)O)NC(=O)[C@H]([C@@H](C)CC)NC(=O)[C@H](CSSC[C@H](NC(=O)CCOCCOCCOCCOCCNC(=O)CN3CCN(CC(=O)O)CCN(CC(=O)O)CCN(CC(=O)O)CC3)C(=O)N[C@@H](CCC(=O)O)C(=O)N[C@@H](Cc3ccc(O)cc3)C(=O)N[C@@H](CC(=O)O)C(=O)N[C@@H](CCC(=O)O)C(=O)N[C@@H](CCC(N)=O)C(=O)N[C@@H](Cc3ccccc3)C(=O)N[C@@H](Cc3ccccc3)C(=O)N[C@@H]([C@@H](C)O)C(=O)N[C@@H](C)C(=O)N[C@@H](CC(C)C)C(=O)N[C@@H](CCCCN)C(=O)N[C@@H](CCCNC(=N)N)C(=O)N[C@@H](CC(C)C)C(=O)N[C@@H](CCCNC(=N)N)C(=O)NCC(=O)N[C@@H](CC(=O)O)C(=O)N[C@@H](CC(=O)O)C(=O)N[C@@H]([C@@H](C)CC)C(=O)N2)NC(=O)[C@H](CC(C)C)NC(=O)CNC(=O)[C@@H]2CCCN2C(=O)[C@H](CC(C)C)NC(=O)[C@H](Cc2ccc(O)cc2)NC(=O)[C@H](CCC(N)=O)NC(=O)[C@H](Cc2ccccc2)NC(=O)[C@H](CO)NC(=O)[C@H](C)NC(=O)[C@H](CCC(N)=O)NC1=O [Compound C237],half-life,[1],28.4 min
CC[C@H](C)[C@@H]1NC(=O)[C@H](Cc2ccc(O)cc2)NC(=O)[C@H](CCC(=O)O)NC(=O)[C@@H]2CSSC[C@@H](C(=O)N[C@@H](CO)C(=O)O)NC(=O)CNC(=O)[C@H](CC(C)C)NC(=O)[C@H](CC(N)=O)NC(=O)[C@H](CC(=O)O)NC(=O)[C@H](CC(C)C)NC(=O)[C@H]([C@@H](C)CC)NC(=O)[C@H](CCC(=O)O)NC(=O)[C@H](CCC(=O)O)NC(=O)[C@H]([C@@H](C)CC)NC(=O)[C@H](CSSC[C@H](NC(=O)CCOCCOCCOCCOCCNC(=O)CN3CCN(CC(=O)O)CCN(CC(=O)O)CCN(CC(=O)O)CC3)C(=O)N[C@@H](CC(=O)O)C(=O)N[C@@H](Cc3ccc(O)cc3)C(=O)N[C@@H](CC(=O)O)C(=O)N[C@@H](CCC(=O)O)C(=O)N[C@@H](CCC(N)=O)C(=O)N[C@@H](Cc3ccccc3)C(=O)N[C@@H](Cc3ccccc3)C(=O)N[C@@H]([C@@H](C)O)C(=O)N[C@@H](C)C(=O)N[C@@H](CC(C)C)C(=O)N[C@@H](CCCCN)C(=O)N[C@@H](CCCNC(=N)N)C(=O)N[C@@H](CC(C)C)C(=O)N[C@@H](CCCNC(=N)N)C(=O)NCC(=O)NCC(=O)N[C@@H](CC(=O)O)C(=O)N[C@@H]([C@@H](C)CC)C(=O)N2)NC(=O)[C@H](CC(C)C)NC(=O)CNC(=O)[C@@H]2CCCN2C(=O)[C@H](CC(C)C)NC(=O)[C@H](Cc2ccc(O)cc2)NC(=O)[C@H](CCC(N)=O)NC(=O)[C@H](Cc2ccccc2)NC(=O)[C@H](CO)NC(=O)[C@H](C)NC(=O)[C@H](CCC(N)=O)NC1=O [Compound C240],half-life,[1],29.7 min
CC[C@H](C)[C@@H]1NC(=O)[C@H](Cc2ccc(O)cc2)NC(=O)[C@H](CCC(N)=O)NC(=O)[C@@H]2CSSC[C@@H](C(=O)N[C@@H](CO)C(=O)O)NC(=O)CNC(=O)[C@H](CC(C)C)NC(=O)[C@H](CC(N)=O)NC(=O)[C@H](CC(=O)O)NC(=O)[C@H](CC(C)C)NC(=O)[C@H]([C@@H](C)CC)NC(=O)[C@H](CCC(=O)O)NC(=O)[C@H](CCC(=O)O)NC(=O)[C@H]([C@@H](C)CC)NC(=O)[C@H](CSSC[C@H](NC(=O)CCOCCOCCOCCOCCNC(=O)CCCC[C@@H]3SC[C@@H]4NC(=O)N[C@@H]43)C(=O)N[C@@H](CCC(=O)O)C(=O)N[C@@H](Cc3ccc(O)cc3)C(=O)N[C@@H](CC(=O)O)C(=O)N[C@@H](CCC(=O)O)C(=O)N[C@@H](CCC(=O)O)C(=O)N[C@@H](Cc3ccccc3)C(=O)N[C@@H](Cc3ccccc3)C(=O)N[C@@H]([C@@H](C)O)C(=O)N[C@@H](C)C(=O)N[C@@H](CC(C)C)C(=O)N[C@@H](C)C(=O)N[C@@H](CCCNC(=N)N)C(=O)N[C@@H](CC(C)C)C(=O)N[C@@H](CCCNC(=N)N)C(=O)NCC(=O)NCC(=O)N[C@@H](CC(=O)O)C(=O)N[C@@H]([C@@H](C)CC)C(=O)N2)NC(=O)[C@H](CC(C)C)NC(=O)[C@H](C)NC(=O)[C@@H]2CCCN2C(=O)[C@H](CC(C)C)NC(=O)[C@H](Cc2ccc(O)cc2)NC(=O)[C@H](CCC(N)=O)NC(=O)[C@H](Cc2ccccc2)NC(=O)[C@H](CCCCN(C)C)NC(=O)[C@H](C)NC(=O)[C@H](CCC(N)=O)NC1=O [Compound C300],% Uptake of C306,[2],3%
CC[C@H](C)[C@@H]1NC(=O)[C@H](Cc2ccc(O)cc2)NC(=O)[C@H](CCC(N)=O)NC(=O)[C@@H]2CSSC[C@@H](C(=O)N[C@@H](CO)C(=O)O)NC(=O)CNC(=O)[C@H](CC(C)C)NC(=O)[C@H](CC(N)=O)NC(=O)[C@H](CC(=O)O)NC(=O)[C@H](CC(C)C)NC(=O)[C@H]([C@@H](C)CC)NC(=O)[C@H](CCC(=O)O)NC(=O)[C@H](CCC(=O)O)NC(=O)[C@H]([C@@H](C)CC)NC(=O)[C@H](CSSC[C@H](NC(=O)CCOCCOCCOCCOCCNC(=O)CCCC[C@@H]3SC[C@@H]4NC(=O)N[C@@H]43)C(=O)N[C@@H](CCC(=O)O)C(=O)N[C@@H](Cc3ccc(O)cc3)C(=O)N[C@@H](CC(=O)O)C(=O)N[C@@H](CCC(=O)O)C(=O)N[C@@H](CCC(=O)O)C(=O)N[C@@H](Cc3ccccc3)C(=O)N[C@@H](Cc3ccccc3)C(=O)N[C@@H]([C@@H](C)O)C(=O)N[C@@H](C)C(=O)N[C@@H](CC(C)C)C(=O)N[C@@H](C)C(=O)N[C@@H](CCCNC(=N)N)C(=O)N[C@@H](CC(C)C)C(=O)N[C@@H](CCCNC(=N)N)C(=O)NCC(=O)NCC(=O)N[C@@H](CC(=O)O)C(=O)N[C@@H]([C@@H](C)CC)C(=O)N2)NC(=O)[C@H](CC(C)C)NC(=O)[C@H](C)NC(=O)[C@@H]2CCCN2C(=O)[C@H](CC(C)C)NC(=O)[C@H](Cc2ccc(O)cc2)NC(=O)[C@H](CCC(N)=O)NC(=O)[C@H](Cc2ccccc2)NC(=O)[C@H](CCCCNC(C)C)NC(=O)[C@H](C)NC(=O)[C@H](CCC(N)=O)NC1=O [Compound C301],% Uptake of C306,[2],3%
"C257: exemplary Nectin-4 miniprotein compound ({Biotin-PEG4″}-CDYDEQFFTALKRLRGADICEYIQA[Lys(Me3)]FQYLPGECIEEILDNLGCS-OH; disulfide 1-34, 20-44) [Compound C257]",% Uptake of C306 (Control),[2],7.99%
"C262: exemplary Nectin-4 miniprotein compound ({Biotin-PEG4″}-CEYDEQFFTALARLRGADICEYIQA[Lys(Me3)]FQYLPGLCIEEILDNLGCS-OH; disulfide 1-34, 20-44) [Compound C262]",% Uptake of C306 (Control),[2],1.27%
"C281 ({Biotin-PEG4′}-CEYDEQFFTALARLRGGDICEYIQA[Cit]FQYLPGLCIEEILDNLGCS-OH; disulfide 1-34, 20-44) [Compound C281]",% Uptake of C306 (Control),[2],0.006%
"C282 ({Biotin-PEG4″}-CEYDEQFFTALARLRGGDICEYIQA[Arg(NO2)]FQYLPGLCIEEILDNLGCS-OH; disulfide 1-34, 20-44) [Compound C282]",% Uptake of C306 (Control),[2],2.14 (n = 1) %
"C306: control miniprotein of the proximal tubule cell uptake assay ({Biotin-PEG4′}-CEYDEEFFTALKRLRGGDICYYIKKKFKKVPKLCIEEILDKLGC-NH2; disulfide 1-34, 20-44) [Compound C306, reference compound]",% Uptake of C306 (Control),[2],100%
"{Biotin-PEG4}-CEYDEEFFTAL[Lys(Me2)]RLRGGDICQYIQA[Lys(Me3)]FQYLPALCIEEILDNLGCS-OH (disulfide 1-34, 20-44) [Compound C303]",% Uptake of C306,[2],3%
"{Biotin-PEG4}-CEYDEEFFTAL[Lys(Me)]RLRGGDICQYIQA[Lys(Me3)]FQYLPALCIEEILDNLGCS-OH (disulfide 1-34, 20-44) [Compound C302]",% Uptake of C306,[2],2%
"{Biotin-PEG4}-CEYDEEFFTAL[Lys(iPr)]RLRGGDICQYIQA[Lys(Me3)]FQYLPALCIEEILDNLGCS-OH (disulfide 1-34, 20-44) [Compound C304]",% Uptake of C306,[2],2%
"{Biotin-PEG4}-CEYDEQFFTALARLRGGDICEYIQARFQYLPGLCIEEILDNLGCS-OH (disulfide 1-34, 20-44) [Compound C264]",% Uptake of C306 (Control),[2],0.859%
